According to patent US20240269123A1, “MUSCLE REGENERATION PROMOTER” (priority 2021, published 2024):
Where a name gives a salt, the structure may show the parent alone.

Columns and labels:
histamine H3 receptor = conditions: statement taken from the literature; cited from earlier work
[1] = test system: tibialis anterior muscle damaged by snake venom cardiotoxin (CTX); experiment: Muscle regeneration in cardiotoxin (CTX) muscle-damage model mouse, regenerated single muscle fiber area; type: in vivo, mouse (C57BL/6); conditions: once a day; for increase in the mean muscle fiber area as compared with the Vehicle administration group: day before CTX to 6 days after CTX, muscle collected 7 days after CTX; for histogram of the regenerated single-muscle fiber area as compared with the Vehicle administration group: 7 days after CTX
Protocol: Seven-week old C57BL/6 Male mice (CLEA Japan, Inc.) were purchased, and used for experiment at the age of 8 weeks.
A model animal to which muscle damage had been caused by administration of snake venom cardiotoxin (CTX) was used. The muscle-damaged model animal has been widely used in studies on the regeneration from muscle damage.
Under the anesthesia with isoflurane, 50 μL of 10 μM CTX was administered to the tibialis anterior muscle of the right hindlimb of the mouse. After 7 days of the administration of CTX, the tibialis anterior muscle was collected by dissection, and supplied to the preparation of a muscle tissue section.
Immediately after the collection of the tibialis anterior muscle, the tibialis anterior muscle was immersed in isopentane cooled with liquid nitrogen and was rapidly frozen. The frozen muscle tissue was cut into slices each having a thickness of 10 μm by using a cryostat (Leica Biosystems), and the slice was attached onto an antistripping coated slide glass (Matsunami Glass Ind., Ltd.).
A muscle tissue section was sufficiently air dried for 30 minutes under room temperature. After that, the muscle tissue section was fixed by immersing it in acetone cooled to −30° C. and treating at −30° ° C. for 20 minutes. The fixed section was air dried once and washed with PBS. Then the section was blocked by dropwisely adding a blocking reagent (Blocking One, NACALAI TESQUE, INC.) to the section and being subjected to the blocking treatment for 1 hour. Next, a primary antibody (Anti-laminin-2 (α-2 Chain) antibody, Rat monoclonal (Sigma-Aldrich)) obtained by being diluted 500 times with the blocking reagent was added dropwise, and the reaction was conducted at overnight at 4° C. Since laminin to which a primary antibody binds is a protein expressed in all muscle cells, the primary antibody was used in this experiment in order to measure the area of individual muscle cells in a section. The muscle tissue section after the reaction with the primary antibody was washed with PBS, and then was reacted for 1 hour with a secondary antibody (CF 488A Goat Anti-Rat IgG (H+L) (Biotium)) obtained by being diluted 500 times with the blocking reagent. The secondary antibody that is an anti-rat antibody conjugated with a fluorescent dye binds to the primary antibody, and stains the laminin. The muscle tissue section after the reaction with the secondary antibody was washed with PBS, and sealed by using “[…] Hard. Set with DAPI” (Vector), and then the fluorescence observation was performed with an inverted microscope FSX100 (Olympus). The “[…] Hard Set with DAPI” was used for staining the central nucleus of muscle cells.
The muscle regeneration was evaluated on the basis of the image data taken from the fluorescence observation. In this experiment, muscle cells each having a central nucleus (single muscle fiber having a central nuclei) were used as an indicator for regenerated muscle. After the image data was taken into image analysis software ImageJ (NIH), a muscle cell having a central nucleus was extracted. The cross-sectional area of the extracted individual cells was measured on the basis of the cell membrane stained with laminin. For the area measurement, “Analyze Particles” that is an add-in analysis program on ImageJ was used. The measurement results were shown as a distribution chart (histogram) of the areas and number of regenerated single-muscle fibers, and as an average value of the cross-sectional areas of all the regenerated single muscle fibers (mean muscle fiber area). […]

[2] = 1 μM in PBS, 10 μL intramuscular
[3] = 6.3 mM in PBS with 5% tween 20, 10 μL intramuscular

Structure (SMILES)	selectivity of agonist activity for the histamine H3 receptor over other histamine receptors (histamine H3 receptor)	histogram of the regenerated single-muscle fiber area as compared with the Vehicle administration group [1, 2]	further results
C[C@@H](N)Cc1c[nH]cn1 [Compound 1, (2R)-1-(1H-imidazol-4-yl)propan-2-amine]	selective histamine H3 receptor agonist	–	–
CNCCc1c[nH]cn1 [Compound 4, 2-(1H-imidazol-4-yl)-N-methylethan-1-amine]	non-selective histamine H3 receptor agonist	–	–
c1cc(Cc2c[nH]cn2)ccn1 [Compound 5, 4-[(1H-imidazol-4-yl)methyl]pyridine]	selective histamine H3 receptor agonist	–	–
c1nc(CC2CCNCC2)c[nH]1 [Compound 13, 4-[(1H-imidazol-4-yl)methyl]piperidine]	selective histamine H3 receptor agonist	–	–
CN1CCC(Cc2c[nH]cn2)CC1 [Compound 15, 4-[(1H-imidazol-4-yl)methyl]-1-methylpiperidine]	selective histamine H3 receptor agonist	–	–
CCCNC1CN(c2ccnc(N)n2)C1 [Compound 20, 4-[3-(propylamino)azetidin-1-yl]pyrimidin-2-amine]	selective histamine H3 receptor agonist	–	–
N=C(N)SCCc1c[nH]cn1 [Imetit dihydrobromide, 2-(1H-imidazol-4-yl)ethyl carbamimidothioate]	–	shifted to the right side	increase in the mean muscle fiber area as compared with the Vehicle administration group ([1]; 1 μM in PBS, 10 μL intramuscular, unit not given): 13.18
c1cc(Cc2c[nH]cn2)ccn1 [Immethridine dihydrobromide, 4-[(1H-imidazol-4-yl)methyl]pyridine]	–	shifted to the right side	increase in the mean muscle fiber area as compared with the Vehicle administration group [1, 2]: 14.0%
CNCCc1c[nH]cn1 [N^α-methylhistamine dihydrochloride, 2-(1H-imidazol-4-yl)-N-methylethan-1-amine]	–	shifted to the right side	increase in the mean muscle fiber area as compared with the Vehicle administration group [1, 2]: 7.1%
C[C@@H](N)Cc1c[nH]cn1 [R-α-methylhistamine dihydrochloride, (2R)-1-(1H-imidazol-4-yl)propan-2-amine]	–	–	increase in the mean muscle fiber area as compared with the Vehicle administration group [1, 3]: 12.3%; histogram of the regenerated single-muscle fiber area as compared with the Vehicle administration group [1, 3]: shifted to the right side
